# Assay results from US7119229B2 (priority 2001, dated 2006).
# Read-outs that look alike come from different tables or passages of the source.
# Key:
# [1] = test system: MES-SA (human uterine sarcoma); assay: SRB cytotoxicity assay, MES-SA; type: cell-based; conditions: 72 h, read-out: ED50 MES-SA
# Procedure: (§1) Human tumor cells, including MCF-7 (human breast adenomatous tumor), MCF-7/DOX (adriamycin resistant cell strain), MRS-SA (human uterine sarcoma), MES-SA/DX5 (adriamycin resistant cell strain), A 549 (human non-small cell lung), SKOV-3 (human ovarian), SKMEL-2 (human melanoma), XF-498 (human CNS), HCT-15 (human colon) were incubated at 37° C. in the presence of 5% CO2 using a DMEM culture medium. The respective cells were seeded into each well of 96-well plates at a concentration of 2×10^3˜5×10^3 cells/well. […] Each cell line of the resultant plates was fixed with trichloroacetic acid (TCA), stained with 0.4% SRB solution and rinsed with 1% acetic acid. Thereafter, the dye was dissolved in 10 mM Tris base to measure the optical density (OD) at 520 nm.
# [2] = test system: BALB/c mouse spleen cells, T cells activated with concanvalin A (ConA); assay: Immunosuppressive effect test using BALB/c mouse spleen cells, ConA (T cells); type: cell-based; conditions: 2 μg/ml of ConA, 72 hours, MTS, FIGS. 2 and 3
# Procedure: This test was carried out to determine the immunosuppressive effect of an immunosuppressive candidate material by checking anti-proliferation of T cells and B cells. To identify the proliferation inhibitory extent, responding cells (BALB/c mouse spleen cells) were treated with an immunosuppressive candidate material, lipopolysaccharide (LPS) as a B cell activator and concanvalin A (ConA) as a T cell activator. It is known that the responding cells treated with LPS induce proliferation of B cells and those treated with ConA induce proliferation of T cells.
# Responding cells (BALB/c mouse spleen cells) were seeded into each well of 96-well plates at a concentration of 2×10^5 cells/well. […] After culturing for 72 hours at a CO2 incubator, a 20 μl MTS solution was added to each well, followed by further culturing for 2 to 4 hours and measuring OD at 490 nm using ELISA.
# [3] = test system: ICR mice; assay: Oral administration toxicity assay; conditions: for Days for the test (death) Total: deaths/mice
# [4] = test system: HCT-15 (human colon); assay: SRB cytotoxicity assay, HCT15; type: cell-based; conditions: HCT-15, 72 h, read-out: ED50 HCT15
# Procedure: as §1
# [5] = test system: SKMEL-2 (human melanoma); assay: SRB cytotoxicity assay, SK-MEL-2; type: cell-based; conditions: SK-MEL-2, 72 h, read-out: ED50 SK-MEL-2
# Procedure: as §1
# [6] = test system: MCF-7 (human breast adenomatous tumor); assay: SRB cytotoxicity assay, MCF7; type: cell-based; conditions: MCF7, 72 h, read-out: ED50 MCF7
# Procedure: as §1
# [7] = test system: XF-498 (human CNS); assay: SRB cytotoxicity assay, XF498; type: cell-based; conditions: 72 hours, read-out: ED50 XF498
# Procedure: as §1
# [8] = test system: WP2 uvrA strains (tryptophan auxotrophic strains); assay: Reverse mutation assay (Ames test), E. coli WP2 uvrA
# Procedure: (§2) This assay is carried out to test mutagenicity of chemical substances using histidine auxotrophic strains that are one of Salmonella Typhimurium mutants. […] When various mutagens are added to the culture medium, only revertants generated by reverse mutation survive.
# (§3) Ames test was carried out using […]. […] After incubation, the number of revertant colonies was counted. 3 plates were prepared for each test and the average was calculated.
# [9] = test system: TA1537; assay: Reverse mutation assay (Ames test), TA1537
# Procedure: as §2, §3
# [10] = test system: SKOV-3 (human ovarian); assay: SRB cytotoxicity assay, SK-OV-3; type: cell-based; conditions: 72 hours, read-out: ED50 SK-OV-3
# Procedure: as §1
# [11] = test system: A 549 (human non-small cell lung); assay: SRB cytotoxicity assay, A549; type: cell-based; conditions: A549, 72 h, read-out: ED50 A549
# Procedure: as §1
# [12] = test system: MCF-7/DOX (adriamycin resistant cell strain); assay: SRB cytotoxicity assay, MCF-7/DOX; type: cell-based; conditions: Homo sapiens, MCF7-DOX, 72 h, read-out: ED50 MCF-7/DOX
# Procedure: as §1
# [13] = test system: TA100
# Procedure: as §2, §3
# [14] = test system: TA98
# Procedure: as §2, §3
# [15] = test system: TA1535; conditions: TA1525 (so in the source)
# Procedure: as §2, §3
# [16] = test system: MES-SA/DX5 (adriamycin resistant cell strain); assay: SRB cytotoxicity assay, MES-SA/DX5; type: cell-based; conditions: Homo sapiens, MES-SA/Dx5, 72 h, read-out: ED50 MES-SA/DX5
# Procedure: as §1
smiles,measurement,setting,value
"COc1cc2c(c(OC)c1OC)-c1ccc(OC)c(=O)cc1[C@@H](NC(=O)c1cccc(CO[N+](=O)[O-])c1)CC2 [Compound 6, 3-nitrooxymethyl-N-(1,2,3,10-tetramethoxy-9-oxo-5,6,7,9-tetrahydro-benzo[a]heptarene-7-yl)-benzamide]",EC50,[1],0.2 nM
same,anti-proliferation of T cells,[2],remarkable anti-proliferous effect
same,Days for the test (death) Total,[3]; 2 mg/kg,0/5
same,Days for the Test (death) 4,"[3]; 5 mg/kg, day 4",1
same,Days for the test (death) Total,[3]; 5 mg/kg,1/5
same,Days for the test (death) 2,"[3]; 10 mg/kg, day 2",1
same,Days for the Test (death) 3,"[3]; 10 mg/kg, day 3",1
same,Days for the test (death) Total,[3]; 10 mg/kg,2/5
same,EC50,[4],0.1 nM
same,EC50,[5],0.1 nM
same,EC50,[6],0.02 nM
same,EC50,[7],0.1 nM
same,Colony/Plate S-9 Mixture (+),[8]; 317.5 μg/Plate,12 Colony/Plate
same,Colony/Plate S-9 Mixture (−),[8]; 317.5 μg/Plate,16 Colony/Plate
same,Colony/Plate S-9 Mixture (+),[8]; 625 μg/Plate,12 Colony/Plate
same,Colony/Plate S-9 Mixture (−),[8]; 625 μg/Plate,9 Colony/Plate
same,Colony/Plate S-9 Mixture (+),[8]; 1250 μg/Plate,12 Colony/Plate
same,Colony/Plate S-9 Mixture (−),[8]; 1250 μg/Plate,10 Colony/Plate
same,Colony/Plate S-9 Mixture (+),[8]; 2500 μg/Plate,9 Colony/Plate
same,Colony/Plate S-9 Mixture (−),[8]; 2500 μg/Plate,8 Colony/Plate
same,Colony/Plate S-9 Mixture (+),[8]; 5000 μg/Plate,13 Colony/Plate
same,Colony/Plate S-9 Mixture (−),[8]; 5000 μg/Plate,11 Colony/Plate
same,Colony/Plate S-9 Mixture (+),"[9]; TA1537, 317.5 μg/Plate",11 Colony/Plate
same,Colony/Plate S-9 Mixture (−),"[9]; TA1537, 317.5 μg/Plate",8 Colony/Plate
same,Colony/Plate S-9 Mixture (+),"[9]; TA1537, 625 μg/Plate",16 Colony/Plate
same,Colony/Plate S-9 Mixture (−),"[9]; TA1537, 625 μg/Plate",10 Colony/Plate
same,Colony/Plate S-9 Mixture (+),"[9]; TA1537, 1250 μg/Plate",13 Colony/Plate
same,Colony/Plate S-9 Mixture (−),"[9]; TA1537, 1250 μg/Plate",16 Colony/Plate
same,Colony/Plate S-9 Mixture (+),"[9]; TA1537, 2500 μg/Plate",17 Colony/Plate
same,Colony/Plate S-9 Mixture (−),"[9]; TA1537, 2500 μg/Plate",11 Colony/Plate
same,Colony/Plate S-9 Mixture (+),"[9]; TA1537, 5000 μg/Plate",14 Colony/Plate
same,Colony/Plate S-9 Mixture (−),"[9]; TA1537, 5000 μg/Plate",7 Colony/Plate
same,EC50,[10],0.2 nM
same,EC50,[11],0.1 nM
same,EC50,[12],205 nM
same,Colony/Plate S-9 Mixture (+),"[13]; TA100, 317.5 μg/Plate",96 Colony/Plate
same,Colony/Plate S-9 Mixture (−),"[13]; TA100, 317.5 μg/Plate",81 Colony/Plate
same,Colony/Plate S-9 Mixture (+),"[13]; TA100, 625 μg/Plate",84 Colony/Plate
same,Colony/Plate S-9 Mixture (−),"[13]; TA100, 625 μg/Plate",77 Colony/Plate
same,Colony/Plate S-9 Mixture (+),"[13]; TA100, 1250 μg/Plate",81 Colony/Plate
same,Colony/Plate S-9 Mixture (−),"[13]; TA100, 1250 μg/Plate",84 Colony/Plate
same,Colony/Plate S-9 Mixture (+),"[13]; TA100, 2500 μg/Plate",77 Colony/Plate
same,Colony/Plate S-9 Mixture (−),"[13]; TA100, 2500 μg/Plate",88 Colony/Plate
same,Colony/Plate S-9 Mixture (+),"[13]; TA100, 5000 μg/Plate",78 Colony/Plate
same,Colony/Plate S-9 Mixture (−),"[13]; TA100, 5000 μg/Plate",79 Colony/Plate
same,Colony/Plate S-9 Mixture (+),"[14]; TA98, 317.5 μg/Plate",32 Colony/Plate
same,Colony/Plate S-9 Mixture (−),"[14]; TA98, 317.5 μg/Plate",21 Colony/Plate
same,Colony/Plate S-9 Mixture (+),"[14]; TA98, 625 μg/Plate",29 Colony/Plate
same,Colony/Plate S-9 Mixture (−),"[14]; TA98, 625 μg/Plate",32 Colony/Plate
same,Colony/Plate S-9 Mixture (+),"[14]; TA98, 1250 μg/Plate",33 Colony/Plate
same,Colony/Plate S-9 Mixture (−),"[14]; TA98, 1250 μg/Plate",24 Colony/Plate
same,Colony/Plate S-9 Mixture (+),"[14]; TA98, 2500 μg/Plate",22 Colony/Plate
same,Colony/Plate S-9 Mixture (−),"[14]; TA98, 2500 μg/Plate",22 Colony/Plate
same,Colony/Plate S-9 Mixture (+),"[14]; TA98, 5000 μg/Plate",23 Colony/Plate
same,Colony/Plate S-9 Mixture (−),"[14]; TA98, 5000 μg/Plate",19 Colony/Plate
same,Colony/Plate S-9 Mixture (+),[15]; 317.5 μg/Plate,14 Colony/Plate
same,Colony/Plate S-9 Mixture (−),[15]; 317.5 μg/Plate,14 Colony/Plate
same,Colony/Plate S-9 Mixture (+),[15]; 625 μg/Plate,12 Colony/Plate
same,Colony/Plate S-9 Mixture (−),[15]; 625 μg/Plate,18 Colony/Plate
same,Colony/Plate S-9 Mixture (+),[15]; 1250 μg/Plate,11 Colony/Plate
same,Colony/Plate S-9 Mixture (−),[15]; 1250 μg/Plate,15 Colony/Plate
same,Colony/Plate S-9 Mixture (+),[15]; 2500 μg/Plate,11 Colony/Plate
same,Colony/Plate S-9 Mixture (−),[15]; 2500 μg/Plate,10 Colony/Plate
same,Colony/Plate S-9 Mixture (+),[15]; 5000 μg/Plate,9 Colony/Plate
same,Colony/Plate S-9 Mixture (−),[15]; 5000 μg/Plate,13 Colony/Plate
same,EC50,[16],773 nM
